From patent US12371454B2, “Cyclic peptide compound having Kras inhibitory action” (priority 2019, dated 2025)
Positions of bridges follow the written chain, without caps; N, C: chain ends. Non-standard residues stand in square brackets, D forms with d. Residues, ends and D or L forms follow the SMILES beside them. *: point of attachment. hPhe(3-Cl-4-CF3) = N[C@@H](CCc1ccc(C(F)(F)F)c(Cl)c1)C(=O)O; NEtPhe(4-Me) = CCN[C@@H](Cc1ccc(C)cc1)C(=O)O; NMePhe(4-Me) = CN[C@@H](Cc1ccc(C)cc1)C(=O)O; Abu(4,4,4-F3) = N[C@@H](CC(F)(F)F)C(=O)O; NMeAla(cPent) = CN[C@@H](CC1CCCC1)C(=O)O; NMeGly(cPent) = CN[C@H](C(=O)O)C1CCCC1; NMeCha = CN[C@@H](CC1CCCCC1)C(=O)O; NMehLeu = CN[C@@H](CCC(C)C)C(=O)O; NMeAhp(2) = CCCCC[C@H](NC)C(=O)O; NMeCba = CN[C@@H](CC1CCC1)C(=O)O; NMeChg = CN[C@H](C(=O)O)C1CCCCC1; NMeD = CN[C@@H](CC(=O)O)C(=O)O; NMeL = CN[C@@H](CC(C)C)C(=O)O; NMeNle = CCCC[C@H](NC)C(=O)O; NMeV = CN[C@H](C(=O)O)C(C)C; d(β3hA) = C[C@@H](N)CC(=O)O; NMeS = CN[C@@H](CO)C(=O)O; NMeA = CN[C@@H](C)C(=O)O; Piperidide = C1CCN(*)CC1; Pyrrolidide = C1CCN(*)C1; Ac5c = NC1(C(=O)O)CCCC1; Aze = O=C(O)[C@@H]1CCN1; Cyclopropyl = C1CC1*; Sar = CNCC(=O)O

Experiments:
[1] = tested on: Human pancreatic cancer cell line AsPC-1; test: Measurement of AsPC-1 cell growth inhibition (AsPC-1 CGI); type: cell-based; settings: 96 h
In short: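 AsPC-1 cells in 15% FBS RPMI-1640 were exposed to test compound for 96 hours at 37° C, with CellTiter-Glo as endpoint.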

[2] = target: T1, Kras and SOS1 (biotin-tagged human Kras loaded with GDP, His-tagged human SOS1) (Homo sapiens, UniProt P01116, G12D); test: Protein-protein interaction inhibition between Kras and SOS1 (KrasGl2D-SOS PPI) using AlphaScreen; type: binding; settings: AlphaScreen; biotin-tagged human Kras loaded with GDP, His-tagged human SOS1; read-out: KRAS G12D-SOS PPI IC50
T1 construct: made in house; host or cells: E. coli (stated for Kras only)
T1 sequence (P01116 1-188 isoform P01116-2 G12D): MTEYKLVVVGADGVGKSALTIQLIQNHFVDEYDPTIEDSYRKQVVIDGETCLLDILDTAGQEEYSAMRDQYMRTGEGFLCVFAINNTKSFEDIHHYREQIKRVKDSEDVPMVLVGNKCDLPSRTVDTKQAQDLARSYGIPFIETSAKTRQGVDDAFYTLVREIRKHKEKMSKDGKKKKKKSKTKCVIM
In short: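 Energy transfer from nickel-chelate donor beads bound to His-SOS1 to streptavidin acceptor beads bound to biotin-Kras, expressed in E. coli and loaded with GDP after purification, was monitored. Donors were excited at 680 nm; singlet oxygen reaching acceptors gave emission read at 520-620 nm.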

Compound	IC50 [1] [µM]	IC50 [2] [µM]
CC[C@H](C)[C@@H]1NC(=O)[C@H](CC(C)C)N(C)C(=O)C[C@@H](C(=O)N2CCCCC2)N(C)C(=O)[C@H](C(C)C)N(C)C(=O)C2(CCCC2)NC(=O)[C@@H]2CCCN2C(=O)[C@H](CCc2ccc(C(F)(F)F)c(Cl)c2)NC(=O)CN(C)C(=O)[C@H](CCC(C)C)N(C)C(=O)[C@@H]2CCN2C(=O)[C@H](C)N(C)C1=O [Compound 1709] ([NMeL]I[NMeA][Aze][NMehLeu][Sar][hPhe(3-Cl-4-CF3)]P[Ac5c][NMeV][NMeD]-Piperidide; lactam N-11)	0.1 to 0.5	0.01
CC[C@H](C)[C@@H]1NC(=O)[C@H](CC(C)C)N(C)C(=O)C[C@@H](C(=O)N2CCCC2)N(C)C(=O)[C@H](C(C)C)N(C)C(=O)C2(CCCC2)NC(=O)[C@@H]2CCCN2C(=O)[C@H](CCc2ccc(C(F)(F)F)c(Cl)c2)NC(=O)CN(C)C(=O)[C@H](CC2CCCCC2)N(C)C(=O)CN(C)C(=O)CN(C)C1=O [Compound 1711] ([NMeL]I[Sar][Sar][NMeCha][Sar][hPhe(3-Cl-4-CF3)]P[Ac5c][NMeV][NMeD]-Pyrrolidide; lactam N-11)	0.1 to 0.5	0.00078
CC[C@H](C)[C@@H]1NC(=O)[C@H](CO)N(C)C(=O)C[C@@H](C(=O)N2CCCCC2)N(C)C(=O)[C@H](C2CCCCC2)N(C)C(=O)C2(CCCC2)NC(=O)[C@@H]2CCCN2C(=O)[C@H](CCc2ccc(C(F)(F)F)c(Cl)c2)NC(=O)CN(C)C(=O)[C@H](CC2CCCCC2)N(C)C(=O)CN(C)C(=O)CN(C)C1=O [Compound 1713] ([NMeS]I[Sar][Sar][NMeCha][Sar][hPhe(3-Cl-4-CF3)]P[Ac5c][NMeChg][NMeD]-Piperidide; lactam N-11)	0.1 to 0.5	0.00049
CC[C@H](C)[C@@H]1NC(=O)[C@H](CC(C)C)N(C)C(=O)C[C@@H](C)NC(=O)[C@H](C2CCCC2)N(C)C(=O)C2(CCCC2)NC(=O)[C@@H]2CCCN2C(=O)[C@H](CCc2ccc(C(F)(F)F)c(Cl)c2)NC(=O)CN(C)C(=O)[C@H](Cc2ccc(C)cc2)N(CC)C(=O)[C@@H]2CCN2C(=O)[C@H](C)N(C)C1=O [Compound 1714] (cyclo([Ac5c][NMeGly(cPent)][d(β3hA)][NMeL]I[NMeA][Aze][NEtPhe(4-Me)][Sar][hPhe(3-Cl-4-CF3)]P))	0.05 to 0.1	0.0023
CC[C@H](C)[C@@H]1NC(=O)[C@H](CC(C)C)N(C)C(=O)C[C@@H](C(=O)N2CCCCC2)N(C)C(=O)[C@H](C(C)C)N(C)C(=O)C2(CCCC2)NC(=O)[C@@H]2CCCN2C(=O)[C@H](CCc2ccc(C(F)(F)F)c(Cl)c2)NC(=O)CN(C)C(=O)[C@H](CC2CCC2)N(C)C(=O)[C@@H]2CCN2C(=O)[C@H](C)N(C)C1=O [Compound 1716] ([NMeL]I[NMeA][Aze][NMeCba][Sar][hPhe(3-Cl-4-CF3)]P[Ac5c][NMeV][NMeD]-Piperidide; lactam N-11)	0.1 to 0.5	0.0079
CC[C@H](C)[C@@H]1NC(=O)[C@H](C)N(C)C(=O)C[C@@H](C(=O)N2CCCC2)N(C)C(=O)[C@H](C2CCCCC2)N(C)C(=O)C2(CCCC2)NC(=O)[C@@H]2CCCN2C(=O)[C@H](CCc2ccc(C(F)(F)F)c(Cl)c2)NC(=O)CN(C)C(=O)[C@H](CC2CCCCC2)N(C)C(=O)CN(C)C(=O)CN(C)C1=O [Compound 1720] ([NMeA]I[Sar][Sar][NMeCha][Sar][hPhe(3-Cl-4-CF3)]P[Ac5c][NMeChg][NMeD]-Pyrrolidide; lactam N-11)	0.05 to 0.1	0.00058
CC[C@H](C)[C@@H]1NC(=O)[C@H](CC(C)C)N(C)C(=O)C[C@@H](C(=O)N2CCCC2)N(C)C(=O)[C@H](C2CCCCC2)N(C)C(=O)C2(CCCC2)NC(=O)[C@@H]2CCCN2C(=O)[C@H](CCc2ccc(C(F)(F)F)c(Cl)c2)NC(=O)CN(C)C(=O)[C@H](CC2CCCCC2)N(C)C(=O)[C@@H]2CCN2C(=O)[C@H](C)N(C)C1=O [Compound 1726] ([NMeL]I[NMeA][Aze][NMeCha][Sar][hPhe(3-Cl-4-CF3)]P[Ac5c][NMeChg][NMeD]-Pyrrolidide; lactam N-11)	0.02 to 0.05	0.00068
CC[C@H](C)[C@@H]1NC(=O)[C@H](CC(C)C)N(C)C(=O)C[C@@H](C(=O)N(C)C)N(C)C(=O)[C@H](C(C)C)N(C)C(=O)C2(CCCC2)NC(=O)[C@@H]2CCCN2C(=O)[C@H](CCc2ccc(C(F)(F)F)c(Cl)c2)NC(=O)CN(C)C(=O)[C@H](CC2CCCCC2)N(C)C(=O)[C@@H]2CCN2C(=O)[C@H](C)N(C)C1=O [Compound 1728] ([NMeL]I[NMeA][Aze][NMeCha][Sar][hPhe(3-Cl-4-CF3)]P[Ac5c][NMeV][NMeD]-NMe2; lactam N-11)	0.05 to 0.1	0.0012
CC[C@H](C)[C@@H]1NC(=O)[C@H](CC(C)C)N(C)C(=O)C[C@@H](C(=O)N(C)C)N(C)C(=O)[C@H](C2CCCCC2)N(C)C(=O)C2(CCCC2)NC(=O)[C@@H]2CCCN2C(=O)[C@H](CCc2ccc(C(F)(F)F)c(Cl)c2)NC(=O)CN(C)C(=O)[C@H](CC2CCCCC2)N(C)C(=O)CN(C)C(=O)CN(C)C1=O [Compound 1729] ([NMeL]I[Sar][Sar][NMeCha][Sar][hPhe(3-Cl-4-CF3)]P[Ac5c][NMeChg][NMeD]-NMe2; lactam N-11)	0.02 to 0.05	0.00044
CC[C@H](C)[C@@H]1NC(=O)[C@H](CC(C)C)N(C)C(=O)C[C@@H](C(=O)N2CCCCC2)N(C)C(=O)[C@H](C2CCCCC2)N(C)C(=O)C2(CCCC2)NC(=O)[C@@H]2CCCN2C(=O)[C@H](CCc2ccc(C(F)(F)F)c(Cl)c2)NC(=O)CN(C)C(=O)[C@H](COC2CC2)N(C)C(=O)CN(C)C(=O)CN(C)C1=O [Compound 1731] ([NMeL]I[Sar][Sar][NMeS](Cyclopropyl)[Sar][hPhe(3-Cl-4-CF3)]P[Ac5c][NMeChg][NMeD]-Piperidide; lactam N-11)	0.1 to 0.5	0.0019
CCCCC[C@H]1C(=O)N[C@@H]([C@@H](C)CC)C(=O)N(C)CC(=O)N(C)CC(=O)N(C)[C@@H](CC2CCCCC2)C(=O)N(C)CC(=O)N[C@@H](CCc2ccc(C(F)(F)F)c(Cl)c2)C(=O)N2CCC[C@H]2C(=O)NC2(CCCC2)C(=O)N(C)[C@@H](C2CCCCC2)C(=O)N(C)[C@H](C(=O)N2CCCCC2)CC(=O)N1C [Compound 1735] ([NMeAhp(2)]I[Sar][Sar][NMeCha][Sar][hPhe(3-Cl-4-CF3)]P[Ac5c][NMeChg][NMeD]-Piperidide; lactam N-11)	0.05 to 0.1	0.0011
CC[C@H](C)[C@@H]1NC(=O)[C@H](CC(C)C)N(C)C(=O)C[C@@H](C(=O)N2CCCCC2)N(C)C(=O)[C@H](C(C)C)N(C)C(=O)C2(CCCC2)NC(=O)[C@@H]2CCCN2C(=O)[C@H](CCc2ccc(C(F)(F)F)c(Cl)c2)NC(=O)CN(C)C(=O)[C@H](COC2CC2)N(C)C(=O)[C@@H]2CCN2C(=O)[C@H](C)N(C)C1=O [Compound 1738] ([NMeL]I[NMeA][Aze][NMeS](Cyclopropyl)[Sar][hPhe(3-Cl-4-CF3)]P[Ac5c][NMeV][NMeD]-Piperidide; lactam N-11)	0.1 to 0.5	0.011
CC[C@H](C)[C@@H]1NC(=O)[C@H](CC(C)C)N(C)C(=O)C[C@@H](C(=O)N2CCCCC2)N(C)C(=O)[C@H](C(C)C)N(C)C(=O)C2(CCCC2)NC(=O)[C@@H]2CCCN2C(=O)[C@H](CCc2ccc(C(F)(F)F)c(Cl)c2)NC(=O)CN(C)C(=O)[C@H](CC2CCCC2)N(C)C(=O)[C@@H]2CCN2C(=O)[C@H](C)N(C)C1=O [Compound 1739] ([NMeL]I[NMeA][Aze][NMeAla(cPent)][Sar][hPhe(3-Cl-4-CF3)]P[Ac5c][NMeV][NMeD]-Piperidide; lactam N-11)	0.1 to 0.5	0.0047
CCCC[C@H]1C(=O)N[C@@H]([C@@H](C)CC)C(=O)N(C)CC(=O)N(C)CC(=O)N(C)[C@@H](CC2CCCCC2)C(=O)N(C)CC(=O)N[C@@H](CCc2ccc(C(F)(F)F)c(Cl)c2)C(=O)N2CCC[C@H]2C(=O)NC2(CCCC2)C(=O)N(C)[C@@H](C2CCCCC2)C(=O)N(C)[C@H](C(=O)N2CCCCC2)CC(=O)N1C [Compound 1740] ([NMeNle]I[Sar][Sar][NMeCha][Sar][hPhe(3-Cl-4-CF3)]P[Ac5c][NMeChg][NMeD]-Piperidide; lactam N-11)	0.05 to 0.1	0.00079
CC(C)C[C@H]1C(=O)N[C@@H](CC(F)(F)F)C(=O)N(C)CC(=O)N(C)CC(=O)N(C)[C@@H](CC2CCCCC2)C(=O)N(C)CC(=O)N[C@@H](CCc2ccc(C(F)(F)F)c(Cl)c2)C(=O)N2CCC[C@H]2C(=O)NC2(CCCC2)C(=O)N(C)[C@@H](C2CCCCC2)C(=O)N(C)[C@H](C(=O)N2CCCCC2)CC(=O)N1C [Compound 1744] ([NMeL][Abu(4,4,4-F3)][Sar][Sar][NMeCha][Sar][hPhe(3-Cl-4-CF3)]P[Ac5c][NMeChg][NMeD]-Piperidide; lactam N-11)	0.1 to 0.5	0.004
CC[C@H](C)[C@@H]1NC(=O)[C@H](CC(C)C)N(C)C(=O)C[C@@H](C(=O)N2CCCC2)N(C)C(=O)[C@H](C(C)C)N(C)C(=O)C2(CCCC2)NC(=O)[C@@H]2CCCN2C(=O)[C@H](CCc2ccc(C(F)(F)F)c(Cl)c2)NC(=O)CN(C)C(=O)[C@H](Cc2ccc(C)cc2)N(C)C(=O)CN(C)C(=O)CN(C)C1=O [Compound 1749] ([NMeL]I[Sar][Sar][NMePhe(4-Me)][Sar][hPhe(3-Cl-4-CF3)]P[Ac5c][NMeV][NMeD]-Pyrrolidide; lactam N-11)	0.1 to 0.5	0.00074
